Results published in US8188082B2, “5,6,7,8-tetrahydro-imidazo[1,5-α]pyrazine derivatives” (Actelion Pharmaceuticals Ltd., priority 2006, dated 2012).

What was measured:
human orexin-1 receptor = target: T1, human orexin-1 receptor (Homo sapiens, UniProt O43613); assay: Intracellular calcium measurements (FLIPR), orexin receptor antagonistic activity, OX1; format: cell-based; details: CHO cells expressing human orexin-1 receptor; 10 nM orexin-A as agonist
T1 construct: expressed in transfected cells; host or cells: CHO cells (G418 selection)
T1 sequence (O43613 1-425): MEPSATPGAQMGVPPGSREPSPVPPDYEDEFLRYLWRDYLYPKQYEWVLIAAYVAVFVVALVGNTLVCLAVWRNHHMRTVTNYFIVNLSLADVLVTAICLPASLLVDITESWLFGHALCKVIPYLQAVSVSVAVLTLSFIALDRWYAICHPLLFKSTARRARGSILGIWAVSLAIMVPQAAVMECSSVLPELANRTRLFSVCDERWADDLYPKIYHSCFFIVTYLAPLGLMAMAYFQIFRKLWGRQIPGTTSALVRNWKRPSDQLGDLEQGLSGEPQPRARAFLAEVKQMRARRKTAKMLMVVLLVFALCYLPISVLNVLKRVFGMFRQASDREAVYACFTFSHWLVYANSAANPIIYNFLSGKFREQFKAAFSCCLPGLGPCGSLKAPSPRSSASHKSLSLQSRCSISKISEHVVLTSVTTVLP
Protocol: (§1) Intracellular Calcium Measurements:
(§2) Chinese hamster ovary (CHO) cells expressing the human orexin-1 receptor and the human orexin-2 receptor, respectively, are grown in culture medium (Ham F-12 with L-Glutamine) containing 300 μg/ml G418, 100 U/ml penicillin, 100 μg/ml streptomycin and 10% inactivated fetal calf serum (FCS). The cells are seeded at 80,000 cells/well into 96-well black clear bottom sterile plates (Costar) which have been precoated with 1% gelatine in Hanks' Balanced Salt Solution (HBSS). All reagents are from Gibco BRL. The seeded plates are incubated overnight at 37° C. in 5% CO2.
(§3) Human orexin-A as an agonist is prepared as 1 mM stock solution in MeOH:water (1:1), diluted in HBSS containing 0.1% bovine serum albumin (BSA) and 2 mM HEPES for use in the assay at a final concentration of 10 nM.
(§4) Antagonists are prepared as 10 mM stock solution in DMSO, then diluted in 96-well plates, first in DMSO, then in HBSS containing 0.1% bovine serum albumin (BSA) and 2 mM HEPES.
(§5) On the day of the assay, 100 μl of loading medium (HBSS containing 1% FCS, 2 mM HEPES, 5 mM probenecid (Sigma) and 3 μM of the fluorescent calcium indicator fluo-3 AM (1 mM stock solution in DMSO with 10% pluronic acid) (Molecular Probes) is added to each well.
(§6) The 96-well plates are incubated for 60 min at 37° C. in 5% CO2. The loading solution is then aspirated and cells are washed 3 times with 200 μl HBSS containing 2.5 mM probenecid, 0.1% BSA, 2 mM HEPES. 100 μl of that same buffer is left in each well.
(§7) Within the Fluorescent Imaging Plate Reader (FLIPR, Molecular Devices), antagonists are added to the plate in a volume of 50 μl, incubated for 20 min and finally 100 μl of agonist is added. Fluorescence is measured for each well at 1 second intervals, and the height of each fluorescence peak is compared to the height of the fluorescence peak induced by 10 nM orexin-A with buffer in place of antagonist. For each antagonist, IC50 value (the concentration of compound needed to inhibit 50% of the agonistic response) is determined.

human orexin-2 receptor = target: T2, human orexin-2 receptor (Homo sapiens, UniProt O43614); assay: Intracellular calcium measurements (FLIPR), orexin receptor antagonistic activity, OX2; format: cell-based; details: CHO cells expressing human orexin-2 receptor; 10 nM orexin-A as agonist
T2 construct: expressed in transfected cells; host or cells: CHO cells (G418 selection)
T2 sequence (O43614 1-444): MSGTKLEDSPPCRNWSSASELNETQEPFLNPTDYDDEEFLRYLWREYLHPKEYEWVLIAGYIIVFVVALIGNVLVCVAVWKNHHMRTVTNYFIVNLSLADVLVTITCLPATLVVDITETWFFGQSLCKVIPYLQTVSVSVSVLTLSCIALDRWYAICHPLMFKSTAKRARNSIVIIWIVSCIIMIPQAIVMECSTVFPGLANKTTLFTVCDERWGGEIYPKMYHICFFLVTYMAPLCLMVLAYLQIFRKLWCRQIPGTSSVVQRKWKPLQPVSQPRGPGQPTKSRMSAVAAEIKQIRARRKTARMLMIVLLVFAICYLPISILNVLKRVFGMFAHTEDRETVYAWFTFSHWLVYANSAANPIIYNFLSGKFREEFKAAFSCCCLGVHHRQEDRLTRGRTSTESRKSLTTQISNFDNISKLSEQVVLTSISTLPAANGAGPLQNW
Protocol: as §1, §2, §3, §4, §5, §6, §7

Row | IC50 (human orexin-1 receptor) | IC50 (human orexin-2 receptor) | Compound
1 | 412 nM | 2 nM | CCc1nc(Cl)c2n1CCN([C@@H](C(=O)NC)c1ccccc1)[C@H]2COc1cccc(C(F)(F)F)c1 [53 (8R; 2′R), (R)-2′-[1-chloro-3-ethyl-(R)-8-(3-trifluoromethyl-phenoxymethyl)-5,6-dihydro-8H-imidazo[1,5-a]pyrazin-7-yl]-N-methyl-2′-phenyl-acetamide]
2 | 36 nM | 11 nM | CNC(=O)[C@@H](c1ccccc1)N1CCn2c(C)nc(Cl)c2C1CCc1ccc(C)c(C)c1 (mixture of isomers) [11 (8S; 2′R)/(8R; 2′R)]
3 | 762 nM | 21 nM | CNC(=O)[C@@H](c1ccccc1)N1CCn2c(C)nc(C3CC3)c2[C@@H]1CCc1ccc(C(F)(F)F)cc1 [46 (8S; 2′R), (R)-2′-{1-cyclopropyl-3-methyl-(S)-8-[2-(4-trifluoromethyl-phenyl)-ethyl]-5,6-dihydro-8H-imidazo[1,5-a]pyrazin-7-yl}-N-methyl-2′-phenyl-acetamide]
4 | 72 nM | 14 nM | CNC(=O)[C@@H](c1ccccc1)N1CCn2c(C)nc(Cl)c2[C@H]1CCc1cc(F)c(C)c(F)c1 [10 (8R; 2′R), (R)-2′-{1-chloro-(R)-8-[2-(3,5-difluoro-4-methyl-phenyl)-ethyl]-3-methyl-5,6-dihydro-8H-imidazo[1,5-a]pyrazin-7-yl}-N-methyl-2′-phenyl-acetamide]
5 | 2060 nM | 33 nM | CNC(=O)[C@@H](c1ccccc1)N1CCn2c(COC)nc(Cl)c2C1CCc1ccc(C(F)(F)F)cc1 (mixture of isomers) [16 (8S; 2′R)/(8R; 2′R)]
6 | 176 nM | 29 nM | C=Cc1nc(CC)n2c1[C@H](CCc1ccc(C(F)(F)F)cc1)N([C@@H](C(=O)NC)c1ccccc1)CC2 [28 (8S; 2′R), (R)-2′-{3-ethyl-(S)-8-[2-(4-trifluoromethyl-phenyl)-ethyl]-1-vinyl-5,6-dihydro-8H-imidazo[1,5-a]pyrazin-7-yl}-N-methyl-2′-phenyl-acetamide]
7 | 279 nM | 11 nM | CNC(=O)[C@@H](c1ccccc1)N1CCn2c(Cl)nc(Cl)c2C1CCc1ccc(C(F)(F)F)cc1 (mixture of isomers) [33 (8S; 2′R)/(8R; 2′R)]
8 | 5 nM | 4 nM | CCc1nc(OC)c2n1CCN([C@@H](C(=O)NC)c1ccccc1)[C@H]2CCc1ccc(C)c(C)c1 [27 (8S; 2′R), (R)-2′-{(S)-8-[2-(3,4-dimethyl-phenyl)-ethyl]-3-ethyl-1-methoxy-5,6-dihydro-8H-imidazo[1,5-a]pyrazin-7-yl}-N-methyl-2′-phenyl-acetamide]
9 | ≥ 10000 nM | 115 nM | CNC(=O)[C@@H](c1ccccc1)N1CCn2c(C)nc(C)c2C1CCc1ccc(OC)cc1OC (mixture of isomers) [25 (8S; 2′R)/(8R; 2′R)]
10 | 17 nM | 14 nM | CCc1nc(Cl)c2n1CCN([C@@H](C(=O)NC)c1ccccc1)[C@H]2CCc1cc(F)c(OC)c(F)c1 [36 (8S; 2′R), (R)-2′-{1-chloro-(S)-8-[2-(3,5-difluoro-4-methoxy-phenyl)-ethyl]-3-ethyl-5,6-dihydro-8H-imidazo[1,5-a]pyrazin-7-yl}-N-methyl-2′-phenyl-acetamide]
11 | 807 nM | 15 nM | CCc1nc(C(F)(F)F)c2n1CCN([C@@H](C(=O)NC)c1ccccc1)[C@H]2CCc1ccc(C(F)(F)F)cc1 [15 (8S; 2′R), (R)-2′-{3-ethyl-1-trifluoromethyl-(S)-8-[2-(4-trifluoromethyl-phenyl)-ethyl]-5,6-dihydro-8H-imidazo[1,5-a]pyrazin-7-yl}-N-methyl-2′-phenyl-acetamide]
12 | 538 nM | 14 nM | CNC(=O)[C@@H](c1ccccc1)N1CCn2c(C)nc(C#N)c2[C@@H]1CCc1ccc(C(F)(F)F)c(F)c1 [43 (8S; 2′R), (R)-2′-{1-cyano-(S)-8-[2-(3-fluoro-4-trifluoromethyl-phenyl)-ethyl]-3-methyl-5,6-dihydro-8H-imidazo[1,5-a]pyrazin-7-yl}-N-methyl-2′-phenyl-acetamide]
